This is an account of results in patent US20070117770A1, “Human ribosomal DNA (rDNA) and ribosomal RNA (rRNA) nucleic acids and uses thereof” (Cylene Pharmaceuticals, Inc., priority 2005, published 2007).

What all share (assay): Protein kinase inhibition assay
What all share (format): biochemical

Test [1] deals with Ros(h) (Homo sapiens, UniProt P08922). To be noted: read-out: percent residual activity of Ros(h). The method, then:
(§1) Certain compounds were tested for activity in protein kinase inhibition assays. All substrates were dissolved and diluted to working stocks in de-ionized water, apart from histone H1 (10× working stock in 20 mM MOPS pH 7.0), PDKtide (10× working stock in 50 mM Tris pH 7.0) ATF2 (which is typically stored at a 20× working stock in 50 mM Tris pH 7.5, 150 mM NaCl, 0.1 mM EGTA, 0.03% Brij-35, 50% glycerol, 1 mM benzamidine, 0.2 mM PMSF and 0.1% R-mercaptoethanol), KKLNRTLSFAEPG (SEQ ID NO:203) and RRRLSFAEPG (SEQ ID NO:204) (50 mM HEPES pH 7.4) and GGEEEEYFELVKKKK (SEQ ID NO:205) (20 mM MOPS pH 7.0). All kinases were pre-diluted to a 10× working concentration prior to addition into the assay. The composition of the dilution buffer for each kinase is detailed below.
In a final reaction volume of 25 μl, Ros (h) (5-10 mU) is incubated with 8 mM MOPS pH 7.0, 0.2 mM EDTA, 10 mM MnCl2, 250 μM KKKSPGEYVNIEFG (SEQ ID NO:207), 10 mM MgAcetate and [gamma-33P-ATP] (specific activity approx. 500 cpm/pmol, concentration as required). The reaction is initiated by the addition of the MgATP mix. After incubation for 40 minutes at room temperature, the reaction is stopped by the addition of 5 μl of a 3% phosphoric acid solution. […]

For test [2], the target named is Rsk1(r) (Rattus norvegicus, UniProt Q63531). To be noted: read-out: percent residual activity of Rsk1(r). As for the experimental part:
as §1
(§2) In a final reaction volume of 25 μl, Rsk1 (r) (5-10 mU) is incubated with 8 mM MOPS pH 7.0, 0.2 mM EDTA, 30 μM KKKNRTLSVA (SEQ ID NO:212), 10 mM MgAcetate and [gamma-33P-ATP] (specific activity approx. 500 cpm/pmol, concentration as required). The reaction is initiated by the addition of the MgATP mix. After incubation for 40 minutes at room temperature, the reaction is stopped by the addition of 5 μl of a 3% phosphoric acid solution. 10 μl of the reaction is then spotted onto a P30 filtermat and washed three times for 5 minutes in 75 mM phosphoric acid and once in methanol prior to drying and scintillation counting.

For test [3], the target named is JAK3(h) (Homo sapiens, UniProt P52333). To be noted: read-out: percent residual activity of JAK3(h). The method, then:
as §1
as §2, with “μl, JAK3 (h)” for “μl, Rsk1 (r)”, “EDTA, 500” for “EDTA, 30”, “μM GGEEEEYFELVKKKK” for “μM KKKNRTLSVA”, “ID NO:218),” for “ID NO:212),”

In test [4] the target is MSK1(h) (Homo sapiens, UniProt O75582). As to conditions: read-out: percent residual activity of MSK1(h). As for the experimental part:
as §1
as §2, with “MSK1 (h)” for “Rsk1 (r)”, “GRPRTSSFAEGKK” for “KKKNRTLSVA”, “NO:220),” for “NO:212),”

Test [5] has as its target PKCδ(h) (Homo sapiens, UniProt Q05655). To be noted: read-out: percent residual activity of PKCδ(h). The method, then: as §1
In a final reaction volume of 25 μl, PKCδ (h) (5-10 mU) is incubated with 20 mM HEPES pH 7.4, 0.03% Triton X-100, 0.1 mg/ml phosphatidylserine, 10 μg/ml diacylglycerol, 50 μM ERMRPRKRQGSVRRRV (SEQ ID NO:224), 10 mM MgAcetate and [gamma-33P-ATP] (specific activity approx. 500 cpm/pmol, concentration as required). The reaction is initiated by the addition of the MgATP mix. After incubation for 40 minutes at room temperature, the reaction is stopped by the addition of 5 μl of a 3% phosphoric acid solution. […]

For test [6], the target named is Fes(h) (Homo sapiens, UniProt P07332). To be noted: read-out: percent residual activity of Fes(h). As for the experimental part: as §1
as §2, with “Fes (h)” for “Rsk1 (r)”, “0.1 mg/ml poly(Glu, Tyr) 4:1,” for “30 μM KKKNRTLSVA (SEQ ID NO:212),”, “[y-33P-ATP]” for “[gamma-33P-ATP]”, “Filtermat A” for “P30 filtermat”

Sequence of MSK1(h) (O75582 whole entry): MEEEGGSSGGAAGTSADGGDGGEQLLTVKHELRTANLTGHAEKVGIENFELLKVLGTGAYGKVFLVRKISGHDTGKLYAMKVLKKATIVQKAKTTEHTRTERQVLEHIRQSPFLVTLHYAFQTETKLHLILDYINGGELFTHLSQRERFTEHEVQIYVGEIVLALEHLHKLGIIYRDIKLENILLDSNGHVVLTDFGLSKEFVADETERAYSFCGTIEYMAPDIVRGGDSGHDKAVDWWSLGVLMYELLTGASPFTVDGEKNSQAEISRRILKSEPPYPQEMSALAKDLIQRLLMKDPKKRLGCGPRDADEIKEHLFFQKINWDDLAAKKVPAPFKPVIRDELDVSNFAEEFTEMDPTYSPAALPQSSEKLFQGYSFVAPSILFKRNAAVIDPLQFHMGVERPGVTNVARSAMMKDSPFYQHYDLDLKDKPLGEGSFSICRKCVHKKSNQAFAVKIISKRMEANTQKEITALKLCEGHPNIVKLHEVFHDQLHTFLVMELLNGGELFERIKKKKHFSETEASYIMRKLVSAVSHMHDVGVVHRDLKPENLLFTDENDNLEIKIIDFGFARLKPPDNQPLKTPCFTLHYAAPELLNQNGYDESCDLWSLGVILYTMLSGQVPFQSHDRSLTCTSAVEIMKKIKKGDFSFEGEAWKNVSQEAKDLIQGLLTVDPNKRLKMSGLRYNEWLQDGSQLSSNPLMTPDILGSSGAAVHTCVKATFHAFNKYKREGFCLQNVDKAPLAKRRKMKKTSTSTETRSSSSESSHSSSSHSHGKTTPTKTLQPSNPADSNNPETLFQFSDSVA
Sequence of Ros(h) (P08922 28-2347): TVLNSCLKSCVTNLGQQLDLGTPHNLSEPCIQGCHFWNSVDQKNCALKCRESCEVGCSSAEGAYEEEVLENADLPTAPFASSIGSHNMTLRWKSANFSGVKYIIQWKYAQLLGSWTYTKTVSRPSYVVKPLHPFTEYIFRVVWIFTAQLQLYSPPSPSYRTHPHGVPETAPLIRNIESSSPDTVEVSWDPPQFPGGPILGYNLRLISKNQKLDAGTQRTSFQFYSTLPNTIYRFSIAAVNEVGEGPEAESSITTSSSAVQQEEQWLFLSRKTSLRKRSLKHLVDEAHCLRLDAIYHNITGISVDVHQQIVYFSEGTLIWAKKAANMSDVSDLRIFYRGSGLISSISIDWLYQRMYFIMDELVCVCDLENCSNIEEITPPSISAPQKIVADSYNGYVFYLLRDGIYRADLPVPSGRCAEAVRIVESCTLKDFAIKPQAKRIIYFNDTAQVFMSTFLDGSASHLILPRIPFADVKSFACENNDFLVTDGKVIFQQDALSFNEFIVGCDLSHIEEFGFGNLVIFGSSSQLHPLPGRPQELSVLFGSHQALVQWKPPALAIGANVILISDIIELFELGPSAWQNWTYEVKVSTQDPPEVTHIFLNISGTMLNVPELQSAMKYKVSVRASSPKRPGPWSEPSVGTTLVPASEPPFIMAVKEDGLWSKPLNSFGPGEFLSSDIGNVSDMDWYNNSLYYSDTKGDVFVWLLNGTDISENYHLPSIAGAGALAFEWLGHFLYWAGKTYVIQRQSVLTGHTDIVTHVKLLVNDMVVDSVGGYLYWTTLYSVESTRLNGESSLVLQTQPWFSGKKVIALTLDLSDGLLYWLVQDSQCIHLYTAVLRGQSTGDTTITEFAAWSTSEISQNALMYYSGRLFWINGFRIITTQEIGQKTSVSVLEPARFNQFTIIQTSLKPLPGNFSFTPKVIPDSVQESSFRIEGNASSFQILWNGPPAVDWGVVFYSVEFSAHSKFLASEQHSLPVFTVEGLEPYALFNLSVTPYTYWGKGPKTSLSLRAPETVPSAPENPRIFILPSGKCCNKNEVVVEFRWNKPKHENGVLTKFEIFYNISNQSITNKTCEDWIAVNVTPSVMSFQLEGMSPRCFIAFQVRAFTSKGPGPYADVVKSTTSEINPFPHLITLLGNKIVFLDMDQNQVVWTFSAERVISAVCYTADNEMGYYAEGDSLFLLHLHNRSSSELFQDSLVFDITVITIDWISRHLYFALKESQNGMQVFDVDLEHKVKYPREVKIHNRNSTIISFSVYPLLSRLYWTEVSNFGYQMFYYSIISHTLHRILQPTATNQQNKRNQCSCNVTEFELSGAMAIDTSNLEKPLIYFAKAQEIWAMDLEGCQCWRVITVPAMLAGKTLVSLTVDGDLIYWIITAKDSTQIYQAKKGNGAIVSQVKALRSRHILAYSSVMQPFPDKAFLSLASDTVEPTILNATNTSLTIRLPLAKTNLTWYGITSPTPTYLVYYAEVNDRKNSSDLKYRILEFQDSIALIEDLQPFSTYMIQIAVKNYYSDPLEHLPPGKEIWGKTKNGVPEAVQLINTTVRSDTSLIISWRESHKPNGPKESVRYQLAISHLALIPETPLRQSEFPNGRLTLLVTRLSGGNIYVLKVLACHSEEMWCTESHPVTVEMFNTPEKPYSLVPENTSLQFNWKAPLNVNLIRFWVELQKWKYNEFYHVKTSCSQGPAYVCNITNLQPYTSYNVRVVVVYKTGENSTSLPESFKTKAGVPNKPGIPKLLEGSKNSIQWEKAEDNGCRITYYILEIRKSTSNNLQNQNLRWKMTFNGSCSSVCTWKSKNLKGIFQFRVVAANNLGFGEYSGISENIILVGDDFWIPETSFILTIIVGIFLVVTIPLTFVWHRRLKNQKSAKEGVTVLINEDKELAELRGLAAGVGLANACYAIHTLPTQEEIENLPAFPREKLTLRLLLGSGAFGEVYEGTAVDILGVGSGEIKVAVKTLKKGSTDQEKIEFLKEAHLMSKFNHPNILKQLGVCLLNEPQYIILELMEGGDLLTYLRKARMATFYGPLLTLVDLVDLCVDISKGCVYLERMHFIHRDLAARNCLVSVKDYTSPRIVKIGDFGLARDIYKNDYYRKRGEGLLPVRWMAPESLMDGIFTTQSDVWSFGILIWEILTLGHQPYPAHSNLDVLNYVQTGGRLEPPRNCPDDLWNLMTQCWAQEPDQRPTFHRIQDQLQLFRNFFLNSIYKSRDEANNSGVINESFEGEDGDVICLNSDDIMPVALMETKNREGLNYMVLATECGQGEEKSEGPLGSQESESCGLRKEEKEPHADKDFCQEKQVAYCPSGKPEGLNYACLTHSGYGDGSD
Sequence of Fes(h) (P07332 whole entry): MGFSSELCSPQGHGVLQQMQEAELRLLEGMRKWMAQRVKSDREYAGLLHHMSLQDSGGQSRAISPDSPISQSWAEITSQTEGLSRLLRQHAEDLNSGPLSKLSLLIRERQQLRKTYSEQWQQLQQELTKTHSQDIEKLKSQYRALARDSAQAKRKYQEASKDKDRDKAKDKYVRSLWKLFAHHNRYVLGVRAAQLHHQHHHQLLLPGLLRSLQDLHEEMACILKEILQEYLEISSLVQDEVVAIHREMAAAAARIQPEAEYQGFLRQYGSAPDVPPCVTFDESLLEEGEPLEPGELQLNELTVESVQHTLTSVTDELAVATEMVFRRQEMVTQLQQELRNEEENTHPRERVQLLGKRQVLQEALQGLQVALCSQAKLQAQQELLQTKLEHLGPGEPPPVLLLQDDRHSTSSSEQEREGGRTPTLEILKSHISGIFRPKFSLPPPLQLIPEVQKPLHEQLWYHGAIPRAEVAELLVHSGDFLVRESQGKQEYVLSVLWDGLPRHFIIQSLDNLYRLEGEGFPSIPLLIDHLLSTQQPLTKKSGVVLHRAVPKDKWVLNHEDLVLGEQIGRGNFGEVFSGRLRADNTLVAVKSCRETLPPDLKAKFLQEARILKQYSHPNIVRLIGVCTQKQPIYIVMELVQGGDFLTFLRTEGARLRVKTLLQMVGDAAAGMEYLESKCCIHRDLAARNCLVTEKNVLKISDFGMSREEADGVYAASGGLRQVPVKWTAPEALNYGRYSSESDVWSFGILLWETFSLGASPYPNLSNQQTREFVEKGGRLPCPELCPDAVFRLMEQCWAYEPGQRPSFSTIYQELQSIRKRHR
Sequence of PKCδ(h) (Q05655 whole entry): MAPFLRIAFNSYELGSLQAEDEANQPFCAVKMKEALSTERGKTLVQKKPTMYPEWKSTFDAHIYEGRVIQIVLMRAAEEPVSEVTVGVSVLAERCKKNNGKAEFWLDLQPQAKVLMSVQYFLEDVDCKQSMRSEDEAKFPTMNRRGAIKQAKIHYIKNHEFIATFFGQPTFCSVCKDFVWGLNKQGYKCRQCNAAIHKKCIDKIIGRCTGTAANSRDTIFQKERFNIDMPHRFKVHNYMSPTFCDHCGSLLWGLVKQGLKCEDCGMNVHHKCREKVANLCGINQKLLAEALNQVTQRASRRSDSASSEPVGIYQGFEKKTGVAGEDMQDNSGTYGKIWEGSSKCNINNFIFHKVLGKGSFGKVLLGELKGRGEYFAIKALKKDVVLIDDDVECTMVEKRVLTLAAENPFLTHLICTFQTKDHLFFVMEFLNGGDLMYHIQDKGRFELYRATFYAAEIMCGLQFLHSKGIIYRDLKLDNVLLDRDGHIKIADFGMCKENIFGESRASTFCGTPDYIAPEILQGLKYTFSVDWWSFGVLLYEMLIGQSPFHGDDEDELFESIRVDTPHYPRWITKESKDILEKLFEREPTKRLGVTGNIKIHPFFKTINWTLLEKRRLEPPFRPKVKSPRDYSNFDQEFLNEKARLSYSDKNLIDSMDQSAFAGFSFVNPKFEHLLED

With `CN1CCCC1CCNC(=O)c1cn2c3c(c(N4CCC(c5cnccn5)C4)c(F)cc3c1=O)Oc1cc3ccccc3cc1-2` (stereo not drawn) [Compound A-1], the remaining activity at 2.5 µM in test [1] amounted to 115%; in test [2] it was 85%; in test [3] it was 112%; in test [4] it was 61%; in test [5], 105%; in test [6] it was 82%.
On to `CC(=O)N1CCN(c2ccc3c(=O)c(C(=O)NCCN4CCCC4)c4n(C)c5ccccc5n4c3n2)CC1` [Compound B-1], for which the remaining activity at 2.5 µM in test [1] stood at 113%; in test [2] it was 110%; in test [3] it was 109%; in test [4], 99%; in test [5], 100%; in test [6], 101%.
